From patent publication US12460346B2, “Lactam coated textile” (Conopco, Inc., priority 2018, dated 2025)

Columns and labels:
P. aeruginosa (PA01) [1] = assay: Pseudomonas PAO1 biofilm inhibition on lactam-based textiles by SEM; type: cell-based, Pseudomonas aeruginosa; settings: for Bacteria (pixels): SEM image; for % bacteria coverage: bacteria pixels/total pixels of SEM image
Method: P. aeruginosa (PA01) was cultured overnight at 37° C. on TSA plates. Prior to use in tests, colonies were added to 20 mL of brain-heart infusion broth (BHI) containing 5 mL of glass beads and homogenised for 30 seconds. The optical density of the organism was measured and adjusted to give 1×10^8 cfu/mL. Inoculum (0.3 ml) was placed directly on modified and unmodified textiles in 24-well plates and incubated overnight in appropriate broth. Textiles were subsequently removed, washed in PBS and fixed for microscopy.
Fixative was prepared as described (Erlandsen, Kristich, Dunny, Wells, J. Histochem Cytochem, 2004), using 2% para-formaldehyde, 2% gluteraldehyde and 0.15M Sodium Cacodylate and 0.15% Alcian Blue, pH 7.4. The fixative was applied (enough to cover the biofilms) to the wells containing the biofilms on suitable substrates for 2 hours, this varied between 2 and 22 hours.
Following fixation, the fixative solution was removed and 0.15M Sodium Cacodylate buffer was added to the samples. The samples were then stored in the fridge until processing. Samples were washed 3×5 mins with […] fresh buffer to remove any remaining glutaraldehyde. Subsequently, a solution of 1% Osmium tetroxide (OsO4) was prepared 1:1 with 0.15M Sodium Cacodylate buffer, and added to the samples before incubating for 1 hour at room temperature. Samples were rinsed with distilled water 3×10 mins. 0.5% aqueous Uranyl acetate was then added to the samples before incubation in the dark for 30 mins at room temperature.
Samples were then dehydrated in an ascending ethanol series:
Samples were transferred from the original 24-well plate into a petri dish of hexamethyldisilazane (HMDS) for 5 mins, then to a second dish for 5 mins before being placed in a new 24-well plate lined with filter paper. The plate was then placed in a desiccator overnight to allow evaporation and drying or samples.
After sputter coating with gold-palladium in an argon filled chamber, samples were viewed under a JEOL JSM-6400 scanning electron microscope and images were assembled using the Photoshop software.
The SEM images were measured and the amount of pixels of textile and pixels of bacteria were determined. The % of bacteria coverage is the bacteria pixels/total pixels.

P. aeruginosa GFP = assay: Pseudomonas Aeruginosa-GFP biofilm growth curve inhibition on lactam-based textiles by fluorescence; type: cell-based; settings: lactam in acrylic emulsion binder, printed, or encapsulated and padded on textile; compared to textile without the lactam
Method: A fluorescent strain of P. aeruginosa was used to allow growth inhibition to be measured by fluorescence. P. aeruginosa GFP was cultured for 2 days at 30° C. on MEA plates. Prior to use in tests, colonies were added to 20 mL of brain-heart infusion broth (BHI) containing 5 mL of glass beads and homogenised for 30 seconds. The optical density was measured and adjusted to give 1×10^8 cfu/m. Subsequently, 0.5 mL of the strain in BHI broth was added to the wells of a 24 well plate containing the substrates. This was then placed in the plate reader and read every hour at […]. The experiment tested a control (textile without lactam coating, the sample (textile coated with lactam) and a positive control (chlorhexidine).

[2] = test system: S. aureus (Newman's strain); assay: Biofilm growth inhibition on lactam-based acrylic emulsion textiles by viability (AlamarBlue), Staphylococcus; type: cell-based, Staphylococcus aureus; settings: acrylic emulsion coated with lactam, overnight, lower than 100 = reduction in biofilm growth
Method: (§1) P. aeruginosa (PA01), S. aureus (Newman's strain) were cultured overnight at 37° C. on TSA 5 plates. C. albicans […] was cultured for 2 days at 30° C. on MEA plates. Prior to use in tests, colonies of each organism were added to 20 mL of brain-heart infusion broth (BHI) containing 5 mL of glass beads and homogenised for 30 seconds. The optical density of each organism was measured and adjusted to give 1×10^7 cfu/mL. Inoculum (0.3 ml) was placed directly on acrylic emulsion coated cotton and PET textiles (with and without lactam) that have been previously positioned inside the wells of 6-well plates and incubated overnight in appropriate broth. Textiles were subsequently removed, washed in PBS and metabolism assessed by AlamarBlue on a plate reader. Data were presented as percentage of no-lactam control. A number lower than 100 indicates a reduction in microorganism biofilm growth for the lactam coated textile compared to uncoated textile.

C. albicans 3153A = assay: Biofilm growth inhibition on lactam-based acrylic emulsion textiles by viability (AlamarBlue), Candida; type: cell-based, Candida albicans; settings: acrylic emulsion coated with lactam, overnight, lower than 100 = reduction in biofilm growth
Method: as §1

P. aeruginosa (PA01) [3] = assay: Biofilm growth inhibition on lactam-based acrylic emulsion textiles by viability (AlamarBlue), Pseudomonas; type: cell-based, Pseudomonas aeruginosa; settings: for Mean biofilm metabolism (AlamarBlue): acrylic emulsion coated with lactam, overnight, lower than 100 = reduction in biofilm growth
Method: as §1

SMILES	Bacteria (pixels) (P. aeruginosa (PA01) [1]; polypropylene non-woven coated with lactam in acrylic emulsion, control textile 10,851)	% bacteria coverage (P. aeruginosa (PA01) [1]; polypropylene non-woven coated with lactam in acrylic emulsion, control textile 32.1%) [%]	% bacteria coverage (P. aeruginosa (PA01) [1]; polypropylene non-woven coated with lactam in acrylic emulsion, control textile 32.1%, listed as lactam) [%]	Bacteria (pixels) (P. aeruginosa (PA01) [1]; polypropylene non-woven printed with lactam in solvents, control textile 26,917)	% bacteria coverage (P. aeruginosa (PA01) [1]; polypropylene non-woven printed with lactam in solvents, control textile 62.6%) [%]	% bacteria coverage (P. aeruginosa (PA01) [1]; polypropylene non-woven printed with lactam in solvents, control textile 62.6%, listed as lactam) [%]	Bacteria (pixels) (P. aeruginosa (PA01) [1]; viscose non-woven padded with lactam in polyurea encaps, control textile 16,291)	% bacteria coverage (P. aeruginosa (PA01) [1]; viscose non-woven padded with lactam in polyurea encaps, control textile 47.8%) [%]	% bacteria coverage (P. aeruginosa (PA01) [1]; viscose non-woven padded with lactam in polyurea encaps, control textile 47.8%, listed as lactam) [%]	Pseudomonas Aeruginosa-GFP biofilm growth on the textile (fluorescence growth curve) (P. aeruginosa GFP)	Mean biofilm metabolism (AlamarBlue) ([2]; Cotton)	Mean biofilm metabolism (AlamarBlue) ([2]; Polyethylene)	Mean biofilm metabolism (AlamarBlue) (C. albicans 3153A; Cotton)	Mean biofilm metabolism (AlamarBlue) (C. albicans 3153A; Polyethylene)	Mean biofilm metabolism (AlamarBlue) (P. aeruginosa (PA01) [3]; Cotton)	Mean biofilm metabolism (AlamarBlue) (P. aeruginosa (PA01) [3]; Polyethylene)	biofilm growth compared to textile with no coating (in words) (P. aeruginosa (PA01) [3]; polyethylene and cotton coated with lactam)	Bacteria (pixels) (P. aeruginosa (PA01) [1]; fluorinated polypropylene non-woven coated with cationic lactam, control textile 30,880)	% bacteria coverage (P. aeruginosa (PA01) [1]; fluorinated polypropylene non-woven coated with cationic lactam, control textile 78.0%) [%]	% bacteria coverage (P. aeruginosa (PA01) [1]; fluorinated polypropylene non-woven coated with cationic lactam, control textile 78.0%, listed as Cationic Lactam) [%]
C=C1NC(=O)C=C1c1ccc(Cl)cc1 [lactam (488), 4-(4-chlorophenyl)-5-methylene-pyrrol-2-one]	2,660 pixels	10.1	10.1	23,381 pixels	48.0	48.0	1,806 pixels	8.7	8.7	reduced Pseudomonas Aeruginosa-GFP biofilm growth	33.35 percentage of no-lactam control	47.88 percentage of no-lactam control	84.69 percentage of no-lactam control	67.83 percentage of no-lactam control	54.89 percentage of no-lactam control	80.95 percentage of no-lactam control	reduction in Pseudomonas Aeruginosa biofilm growth	–	–	–
C=C1C(c2ccc(Cl)cc2)=CC(=O)N1CCC[N+](C)(C)C [lactam (488) (cationic)]	–	–	–	–	–	–	–	–	–	–	–	–	–	–	–	–	–	15,864 pixels	36.6	36.6
